# Source: EP0923292B1, “IMPROVED METHOD FOR SYSTEMIC ADMINISTRATION OF 2,4-DIENOIC ACID-TYPE INSECTICIDES TO TERRESTRIAL MAMMALS” (priority 1996, dated 1998)
# Experiments:
# [1] = Methoprene blood concentrations in dogs following a single oral dose (gas chromatography); format: in vivo; details: single oral dose 50 mg/kg
# Experimental: Six healthy mixed breed dogs, three male and three female, of weight ranging from 14 to 22 kg per dog and ages ranging from 2 to 5 years, were utilized. For each dog, a gelatin capsule containing a measured volume of (S)-methoprene was prepared, based on the dog's weight to yield a dose of 50 mg/kg of the dog's body weight in a single gelatin capsule for each dog. The dogs were fasted 24 hours before administration of their individual capsules, and dosing was achieved by placing the capsule in the back of each dog's throat and causing the dog to swallow. Food was then withheld for an additional 8 hours, although water was always available, and the dogs were fed once the following morning.
# At each sampling time, 50 mL of blood was collected from the femoral vein of each dog into two 25-mL syringes. Samples were taken seven days prior to dosing (to establish a baseline), followed by three hours, 1 day, 2 days, 4 days, and 7 days after dosing.
# To prepare the blood samples for methoprene content determinations, each 25-mL blood sample was mixed with 200 mL acetonitrile, 25 g anhydrous Na2SO4, and 10 g CELITE® in a blender for three one-minute segments, allowing the blender blades to cool for thirty seconds between segments. The mixture was then vacuum filtered, including a wash with 50 mL acetonitrile. The filtrate was extracted with petroleum ether for one minute, then diluted with 700 mL deionized water. To this was added 50 g NaCI and the solution was acidified to pH 2 with 0.5 N HCl. The aqueous phase was then discarded, and the petroleum ether phase was washed twice with 600 mL of deionized water. The petroleum ether was then filtered through a glass wool plug topped with 50 g Na2SO4. The Na2SO4 was then rinsed with 15 mL petroleum ether, and the extractant concentrated to 10 mL in a rotary evaporator, using a bath temperature of 30°C. The concentrated extractant was then stored in a refrigerator until the next step in the analysis.
# Extraction columns were prepared by heat activating FLORISIL® (magnesium silicate absorbent) at 200°C for 24 hours, then allowing the FLORISIL to cool for 45 minutes, adding 5 mL of distilled water per 50 g of FLORISIL, shaking the mixture, and allowing it to equilibrate for 3 hours. A glass column with 28 mm intemal diameter was plugged with glass wool and filled with petroleum ether. A 1-cm layer of Na2SO4 was slowly poured into the column, followed by 6.5 cm of FLORISIL and 1.5 cm of Na2SO4. The petroleum ether was then drained until it reached the layer of Na2SO4. The extractant from the preceding paragraph was then loaded into the top of the column with a glass pipette, and its content rinsed with petroleum ether and added to the column. The column was then drained until the solvent layer was above the Na2SO4, and the eluant was discarded. Elution was then performed with 1 L of 5% diethyl ether/petroleum ether for each sample, and fractions of 175 mL and 825 mL were collected. The 825 mL fraction was then evaporated to 5 mL and stored in a refrigerator.
# To prepare the 825 mL fraction for gas chromatography, one mL of internal standard was added to the sample, and the sample volume was evaporated to approximately 0.3 mL with nitrogen. Two aliquots of 5 µL each were injected on a gas chromatograph (Perkin Elmer, Sigma 300, with hydrogen flame ionization detector and data system) equipped with a 6-foot-by 1/4-inch glass column with 3% OV-101 Chrom W HP 100/120 mesh packing, using nitrogen at 60 mUmin as the carrier gas, and injector, column and detector temperatures of 300°C, 166°C, and 280°C, respectively.
# [2] = Concentration of (S)-methoprene in dog blood following oral administration (HPLC); format: in vivo, dogs; details: random-bred, whole blood, 50 mg/kg
# From the text: Twelve random-bred adult dogs of various sex and medium hair coat were selected based on hair coat, health, and individual habits. The twelve dogs were grouped into two groups of six dogs each. Dog weights ranged from 22.5 kg to 35.0 kg, and the various weights and each sex were represented in each group. The dogs received a measured amount of Science Diet maintenance dog food daily and water was available. The two groups of dogs were housed separately. The dogs of Group 1 were not given any treatments, whereas those of Group 2 were each given 50 mg/kg of technical (S)-methoprene one time only at the start of the study (Day 0).
# Blood samples were taken periodically by drawing the samples into 10 cc disposable syringes and transferring them to labeled 5 mL heparinized EDTA vacutainers treated with […] of paraoxon solution at a concentration of 1 x 10^-2 M. The blood samples were frozen until ready for analysis. Hair samples were clipped from the dogs on the same days that blood samples were taken, then placed in labeled freezer jars with aluminum foil seals, and frozen.
# To analyze the blood samples, the samples were extracted three times with methyl t-butyl ether, evaporated, reconstituted in 1 mL of methanol, and analyzed by HPLC as in the hair analyses.
# [3] = (S)-Methoprene concentration in rat blood upon in vivo administration (radioassay/TLC); details: average of three animals
smiles,measurement,setting,value
"COC(C)(C)CCC[C@H](C)C/C=C/C(C)=C/C(=O)OC(C)C [(S)-Methoprene, 1-isopropyl (E,E)-11-methoxy-3,7,11-trimethyl dodecadi-2,4-enoate]",concentration at 0 h,"[1]; both sexes, mixed breed, dog, in vivo, mean of six dogs, 0 hours (baseline, seven days prior to dosing)",0 ng/mL
same,concentration at 3 h,"[1]; both sexes, mixed breed, dog, in vivo, mean of six dogs, 3 hours",547 ng/mL
same,concentration at 24 h,"[1]; both sexes, mixed breed, dog, in vivo, mean of six dogs, 24 hours",85 ng/mL
same,concentration at 48 h,"[1]; both sexes, mixed breed, dog, in vivo, mean of six dogs, 48 hours",104 ng/mL
same,time by which methoprene level fell below detectable amounts,[1]; remaining four of the six dogs,≤ 96 h
same,time (S)-methoprene remains in the dogs' blood,[1],48 to 96 h
same,time by which methoprene level fell below detectable amounts,[1]; two of the six dogs,≤ 48 h
same,concentration at 1 day,"[2]; Dog #60, oral 50 mg/kg one time on Day 0, day 1",117 ng/g
same,concentration at 3 day,"[2]; Dog #60, oral 50 mg/kg one time on Day 0, day 3",36 ng/g
same,concentration at 1 day,"[2]; Dog #98, oral 50 mg/kg one time on Day 0, day 1",97.2 ng/g
same,concentration at 1 day,"[2]; Dog #528, oral 50 mg/kg one time on Day 0, day 1",165 ng/g
same,concentration at 3 day,"[2]; Dog #528, oral 50 mg/kg one time on Day 0, day 3",63.6 ng/g
same,concentration at 1 day,"[2]; Dog #529, oral 50 mg/kg one time on Day 0, day 1",172 ng/g
same,concentration at 3 day,"[2]; Dog #529, oral 50 mg/kg one time on Day 0, day 3",52.1 ng/g
same,concentration at 7 day,"[2]; Dog #529, oral 50 mg/kg one time on Day 0, day 7",55.7 ng/g
same,concentration at 1 day,"[2]; Dog #534, oral 50 mg/kg one time on Day 0, day 1",146 ng/g
same,concentration at 3 day,"[2]; Dog #534, oral 50 mg/kg one time on Day 0, day 3",94.2 ng/g
same,concentration at 5 day,"[2]; Dog #534, oral 50 mg/kg one time on Day 0, day 5",66.8 ng/g
same,concentration at 1 day,"[2]; Dog #535, oral 50 mg/kg one time on Day 0, day 1",239 ng/g
same,concentration at 3 day,"[2]; Dog #535, oral 50 mg/kg one time on Day 0, day 3",93.3 ng/g
same,concentration at 5 day,"[2]; Dog #535, oral 50 mg/kg one time on Day 0, day 5",47.7 ng/g
same,(S)-Methoprene Concentration in Blood,"[3]; Group A 10 mg/kg I.V., 0.5 hours",0.703 ± 0.307 ppm
same,(S)-Methoprene Concentration in Blood,"[3]; Group A 10 mg/kg I.V., 1 hour",0.345 ± 0.107 ppm
same,(S)-Methoprene Concentration in Blood,"[3]; Group A 10 mg/kg I.V., 2 hours",0.113 ± 0.028 ppm
same,(S)-Methoprene Concentration in Blood,"[3]; Group A 10 mg/kg I.V., 3 hours",0.079 ± 0.002 ppm
same,(S)-Methoprene Concentration in Blood,"[3]; Group A 10 mg/kg I.V., 4 hours",0.066 ± 0.028 ppm
same,(S)-Methoprene Concentration in Blood,"[3]; Group A 10 mg/kg I.V., 5 hours",0.048 ± 0.001 ppm
same,(S)-Methoprene Concentration in Blood,"[3]; Group A 10 mg/kg I.V., 6 hours",0.046 ± 0.027 ppm
same,(S)-Methoprene Concentration in Blood,"[3]; Group A 10 mg/kg I.V., 7 hours",0.019 ± 0.008 ppm
same,(S)-Methoprene Concentration in Blood,"[3]; Group B 10 mg/kg oral, 1 hour",0.112 ± 0.038 ppm
same,(S)-Methoprene Concentration in Blood,"[3]; Group B 10 mg/kg oral, 2 hours",0.264 ± 0.122 ppm
same,(S)-Methoprene Concentration in Blood,"[3]; Group B 10 mg/kg oral, 3 hours",0.202 ± 0.065 ppm
same,(S)-Methoprene Concentration in Blood,"[3]; Group B 10 mg/kg oral, 4 hours",0.130 ± 0.066 ppm
same,(S)-Methoprene Concentration in Blood,"[3]; Group B 10 mg/kg oral, 5 hours",0.052 ± 0.026 ppm
same,(S)-Methoprene Concentration in Blood,"[3]; Group B 10 mg/kg oral, 6 hours",0.045 ± 0.014 ppm
same,(S)-Methoprene Concentration in Blood,"[3]; Group B 10 mg/kg oral, 7 hours",0.020 ± 0.005 ppm
same,(S)-Methoprene Concentration in Blood,"[3]; Group B 10 mg/kg oral, 8 hours",0.021 ± 0.009 ppm
same,(S)-Methoprene Concentration in Blood,"[3]; Group C 100 mg/kg oral, 1 hour",0.165 ± 0.070 ppm
same,(S)-Methoprene Concentration in Blood,"[3]; Group C 100 mg/kg oral, 2 hours",3.487 ± 1.324 ppm
same,(S)-Methoprene Concentration in Blood,"[3]; Group C 100 mg/kg oral, 3 hours",1.302 ± 0.409 ppm
same,(S)-Methoprene Concentration in Blood,"[3]; Group C 100 mg/kg oral, 4 hours",1.504 ± 0.533 ppm
same,(S)-Methoprene Concentration in Blood,"[3]; Group C 100 mg/kg oral, 5 hours",0.930 ± 0.449 ppm
same,(S)-Methoprene Concentration in Blood,"[3]; Group C 100 mg/kg oral, 6 hours",0.527 ± 0.341 ppm
same,(S)-Methoprene Concentration in Blood,"[3]; Group C 100 mg/kg oral, 7 hours",0.608 ± 0.292 ppm
same,(S)-Methoprene Concentration in Blood,"[3]; Group C 100 mg/kg oral, 8 hours",0.483 ± 0.221 ppm
